In test [1] the target is Ribosomal protein S6 kinase alpha-3 (Homo sapiens, UniProt P51812). Conditions: Compound concentration 1.0 uM.
In test [2] the target is Protein-tyrosine kinase 2-beta (Homo sapiens) (UniProt Q14289). Briefly: Pyk2(h) Eurofins kinase panel. Conditions: Compound concentration 1.0 uM.
Test [3] concerns the target Insulin-like growth factor 1 receptor (Homo sapiens) (UniProt P08069). Briefly: IGF-1R(h), activated Eurofins kinase panel. Conditions: Compound concentration 1.0 uM.
Test [4] concerns the target Fibroblast growth factor receptor 1 (Homo sapiens) (UniProt P11362). Briefly: FGFR1(h) Eurofins kinase panel. Conditions: Compound concentration 1.0 uM.
Test [5] concerns the target T1, MAP/microtubule affinity-regulating kinase 4 (Homo sapiens) (UniProt Q96L34).
T1 sequence (whole entry): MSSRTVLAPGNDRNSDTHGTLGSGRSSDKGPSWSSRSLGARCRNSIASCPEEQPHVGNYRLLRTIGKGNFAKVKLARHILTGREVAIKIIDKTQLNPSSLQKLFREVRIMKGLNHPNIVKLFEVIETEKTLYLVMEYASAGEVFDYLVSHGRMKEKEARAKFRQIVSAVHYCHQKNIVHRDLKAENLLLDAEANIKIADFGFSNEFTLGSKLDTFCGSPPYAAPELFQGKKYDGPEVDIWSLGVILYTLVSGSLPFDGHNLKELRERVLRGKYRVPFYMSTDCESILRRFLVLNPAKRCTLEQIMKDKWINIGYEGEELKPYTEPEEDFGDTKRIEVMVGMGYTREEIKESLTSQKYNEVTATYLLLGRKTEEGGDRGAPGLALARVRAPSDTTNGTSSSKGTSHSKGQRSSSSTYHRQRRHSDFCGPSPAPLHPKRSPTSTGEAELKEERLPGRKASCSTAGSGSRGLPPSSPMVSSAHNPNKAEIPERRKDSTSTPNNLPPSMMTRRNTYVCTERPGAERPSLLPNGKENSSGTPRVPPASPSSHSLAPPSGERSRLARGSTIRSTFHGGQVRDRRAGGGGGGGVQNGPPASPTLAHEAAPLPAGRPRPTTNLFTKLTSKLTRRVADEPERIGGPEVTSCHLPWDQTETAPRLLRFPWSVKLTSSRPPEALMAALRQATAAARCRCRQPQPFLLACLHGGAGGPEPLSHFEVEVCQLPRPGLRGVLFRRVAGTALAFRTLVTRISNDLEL
The test is described as follows: MARK4(h) Eurofins kinase panel. Conditions: Compound concentration 1.0 uM.

The next test concerns SW780. Briefly: SW780 cell line Proliferation assay. It counts as functional, Homo sapiens. Conditions: time 3 day.
The target in test [6] is Mitogen-activated protein kinase kinase kinase kinase 4 (Homo sapiens) (UniProt O95819). The test is described as follows: MAP4K4(h) Eurofins kinase panel. Conditions: Compound concentration 1.0 uM.
A further test concerns SNU-16. Briefly: SNU-16 cell line Proliferation assay. Type of test: functional, Homo sapiens. Conditions: time 3 day.
Test [7] deals with Phosphatidylinositol 4-phosphate 3-kinase C2 domain-containing subunit alpha (Homo sapiens) (UniProt O00443). The test is described as follows: PI3KC2a(h) Eurofins kinase panel. Conditions: Compound concentration 1.0 uM.
Phosphatidylinositol 4-phosphate 3-kinase C2 domain-containing subunit alpha (Homo sapiens), sequence (O00443 whole entry, the tested form may be a part): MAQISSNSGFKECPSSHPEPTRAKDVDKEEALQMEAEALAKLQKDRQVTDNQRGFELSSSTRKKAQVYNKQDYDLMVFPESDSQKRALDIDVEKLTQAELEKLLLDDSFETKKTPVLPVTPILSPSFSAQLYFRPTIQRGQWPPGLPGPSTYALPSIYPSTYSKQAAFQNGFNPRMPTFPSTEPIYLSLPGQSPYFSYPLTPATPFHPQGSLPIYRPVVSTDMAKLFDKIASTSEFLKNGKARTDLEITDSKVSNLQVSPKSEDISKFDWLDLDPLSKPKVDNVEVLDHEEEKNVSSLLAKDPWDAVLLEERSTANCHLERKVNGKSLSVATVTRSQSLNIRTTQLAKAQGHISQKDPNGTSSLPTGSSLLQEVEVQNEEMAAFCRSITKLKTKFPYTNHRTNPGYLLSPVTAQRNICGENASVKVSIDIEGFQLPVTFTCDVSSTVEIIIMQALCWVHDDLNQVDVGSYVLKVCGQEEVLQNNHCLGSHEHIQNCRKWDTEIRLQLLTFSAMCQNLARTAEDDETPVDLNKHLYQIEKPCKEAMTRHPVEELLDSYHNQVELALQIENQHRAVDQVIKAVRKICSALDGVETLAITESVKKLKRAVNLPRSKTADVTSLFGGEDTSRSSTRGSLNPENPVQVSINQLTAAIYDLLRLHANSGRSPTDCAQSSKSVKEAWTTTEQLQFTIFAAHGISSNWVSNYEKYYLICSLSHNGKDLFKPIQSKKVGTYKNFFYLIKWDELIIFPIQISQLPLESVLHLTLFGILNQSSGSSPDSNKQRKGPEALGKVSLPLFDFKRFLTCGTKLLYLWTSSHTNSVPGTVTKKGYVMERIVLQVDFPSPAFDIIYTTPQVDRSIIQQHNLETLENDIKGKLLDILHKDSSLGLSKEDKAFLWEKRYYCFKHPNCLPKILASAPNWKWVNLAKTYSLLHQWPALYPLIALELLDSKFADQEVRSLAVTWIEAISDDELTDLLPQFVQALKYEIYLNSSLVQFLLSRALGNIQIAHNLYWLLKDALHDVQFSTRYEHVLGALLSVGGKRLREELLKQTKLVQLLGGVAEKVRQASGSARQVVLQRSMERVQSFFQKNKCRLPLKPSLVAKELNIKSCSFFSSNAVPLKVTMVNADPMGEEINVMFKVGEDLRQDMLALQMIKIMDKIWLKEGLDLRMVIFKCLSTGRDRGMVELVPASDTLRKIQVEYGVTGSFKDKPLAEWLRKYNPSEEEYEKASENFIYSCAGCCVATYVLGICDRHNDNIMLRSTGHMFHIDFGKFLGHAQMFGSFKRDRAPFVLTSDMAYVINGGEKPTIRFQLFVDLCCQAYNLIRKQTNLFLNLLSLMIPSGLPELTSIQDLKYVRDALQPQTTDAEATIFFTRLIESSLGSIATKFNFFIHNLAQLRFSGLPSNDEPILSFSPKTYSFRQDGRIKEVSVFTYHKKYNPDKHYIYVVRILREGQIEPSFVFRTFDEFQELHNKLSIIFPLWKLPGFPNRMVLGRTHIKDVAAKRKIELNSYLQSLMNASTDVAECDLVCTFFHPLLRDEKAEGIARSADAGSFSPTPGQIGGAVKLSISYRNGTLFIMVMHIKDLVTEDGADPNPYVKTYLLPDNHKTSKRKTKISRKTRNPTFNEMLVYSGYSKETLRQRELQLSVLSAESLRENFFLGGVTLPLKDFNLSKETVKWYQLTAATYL
The target of test [8] is Activated CDC42 kinase 1 (Homo sapiens) (UniProt Q07912). The test is described as follows: ACK1(h) Eurofins kinase panel. Conditions: Compound concentration 1.0 uM.
Activated CDC42 kinase 1 (Homo sapiens), sequence (Q07912 whole entry, looked up, canonical isoform): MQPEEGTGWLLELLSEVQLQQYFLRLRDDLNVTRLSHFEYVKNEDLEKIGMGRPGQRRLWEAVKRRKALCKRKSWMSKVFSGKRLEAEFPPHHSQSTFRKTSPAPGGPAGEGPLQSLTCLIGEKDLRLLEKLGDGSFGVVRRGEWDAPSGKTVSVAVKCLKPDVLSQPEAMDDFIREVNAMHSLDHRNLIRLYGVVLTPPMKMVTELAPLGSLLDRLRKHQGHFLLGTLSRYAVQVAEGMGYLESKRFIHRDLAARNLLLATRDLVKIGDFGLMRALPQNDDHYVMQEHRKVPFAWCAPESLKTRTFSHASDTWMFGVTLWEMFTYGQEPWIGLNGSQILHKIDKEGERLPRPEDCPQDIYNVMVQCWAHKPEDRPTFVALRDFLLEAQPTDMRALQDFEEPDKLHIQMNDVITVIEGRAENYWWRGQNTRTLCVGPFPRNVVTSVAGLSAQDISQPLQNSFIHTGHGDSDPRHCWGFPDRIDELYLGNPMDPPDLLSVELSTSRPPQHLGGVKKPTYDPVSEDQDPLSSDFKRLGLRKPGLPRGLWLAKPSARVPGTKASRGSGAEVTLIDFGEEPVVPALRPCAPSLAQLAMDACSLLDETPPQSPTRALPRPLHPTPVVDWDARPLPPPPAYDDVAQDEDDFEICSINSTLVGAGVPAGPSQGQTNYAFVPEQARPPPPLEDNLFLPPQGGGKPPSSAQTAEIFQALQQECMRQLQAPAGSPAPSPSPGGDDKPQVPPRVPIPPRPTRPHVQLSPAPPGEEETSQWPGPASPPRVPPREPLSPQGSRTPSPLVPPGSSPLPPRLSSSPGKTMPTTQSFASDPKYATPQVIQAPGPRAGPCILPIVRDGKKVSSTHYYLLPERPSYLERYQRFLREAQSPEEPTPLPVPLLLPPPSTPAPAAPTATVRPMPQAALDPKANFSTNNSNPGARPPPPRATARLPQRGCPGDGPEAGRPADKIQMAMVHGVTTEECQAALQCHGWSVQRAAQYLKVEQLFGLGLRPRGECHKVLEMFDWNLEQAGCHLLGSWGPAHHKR
Test [9] concerns the target Casein kinase I isoform gamma-2 (Homo sapiens) (UniProt P78368). The test is described as follows: CK1gamma2(h) Eurofins kinase panel. Conditions: Compound concentration 1.0 uM.
For another test, the system named is LNCaP C4-2B. The test is described as follows: C4-2B cell line Proliferation assay. Conditions: time 6 day. It counts as functional, Homo sapiens.
Test [10] concerns the target T2, Serine/threonine-protein kinase D2 (Homo sapiens) (UniProt Q9BZL6).
T2 sequence (whole entry): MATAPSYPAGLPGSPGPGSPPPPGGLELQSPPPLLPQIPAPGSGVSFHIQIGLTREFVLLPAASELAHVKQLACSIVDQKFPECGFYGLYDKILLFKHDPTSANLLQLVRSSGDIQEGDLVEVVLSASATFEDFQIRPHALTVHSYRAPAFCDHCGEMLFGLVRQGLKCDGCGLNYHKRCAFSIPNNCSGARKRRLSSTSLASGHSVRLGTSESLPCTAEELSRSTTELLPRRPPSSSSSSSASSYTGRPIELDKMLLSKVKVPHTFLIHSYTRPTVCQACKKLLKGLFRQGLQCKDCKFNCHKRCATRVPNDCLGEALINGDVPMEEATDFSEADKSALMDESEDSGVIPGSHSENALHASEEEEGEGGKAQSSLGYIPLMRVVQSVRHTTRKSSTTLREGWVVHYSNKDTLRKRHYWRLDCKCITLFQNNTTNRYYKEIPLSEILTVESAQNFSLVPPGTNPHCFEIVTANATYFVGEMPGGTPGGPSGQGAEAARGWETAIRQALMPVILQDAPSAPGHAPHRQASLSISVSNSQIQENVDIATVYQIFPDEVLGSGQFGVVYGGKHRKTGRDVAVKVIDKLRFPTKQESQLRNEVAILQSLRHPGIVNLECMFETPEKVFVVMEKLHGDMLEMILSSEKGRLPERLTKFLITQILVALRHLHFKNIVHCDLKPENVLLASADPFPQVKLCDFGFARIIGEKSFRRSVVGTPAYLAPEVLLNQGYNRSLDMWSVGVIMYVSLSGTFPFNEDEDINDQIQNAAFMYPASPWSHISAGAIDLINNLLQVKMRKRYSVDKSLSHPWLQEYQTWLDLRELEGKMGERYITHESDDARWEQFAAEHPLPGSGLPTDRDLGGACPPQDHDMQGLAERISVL
The test is described as follows: PKD2(h) Eurofins kinase panel. Conditions: Compound concentration 1.0 uM.

The target of test [11] is T3, Serine/threonine-protein kinase haspin (Homo sapiens) (UniProt Q8TF76).
T3 sequence (whole entry): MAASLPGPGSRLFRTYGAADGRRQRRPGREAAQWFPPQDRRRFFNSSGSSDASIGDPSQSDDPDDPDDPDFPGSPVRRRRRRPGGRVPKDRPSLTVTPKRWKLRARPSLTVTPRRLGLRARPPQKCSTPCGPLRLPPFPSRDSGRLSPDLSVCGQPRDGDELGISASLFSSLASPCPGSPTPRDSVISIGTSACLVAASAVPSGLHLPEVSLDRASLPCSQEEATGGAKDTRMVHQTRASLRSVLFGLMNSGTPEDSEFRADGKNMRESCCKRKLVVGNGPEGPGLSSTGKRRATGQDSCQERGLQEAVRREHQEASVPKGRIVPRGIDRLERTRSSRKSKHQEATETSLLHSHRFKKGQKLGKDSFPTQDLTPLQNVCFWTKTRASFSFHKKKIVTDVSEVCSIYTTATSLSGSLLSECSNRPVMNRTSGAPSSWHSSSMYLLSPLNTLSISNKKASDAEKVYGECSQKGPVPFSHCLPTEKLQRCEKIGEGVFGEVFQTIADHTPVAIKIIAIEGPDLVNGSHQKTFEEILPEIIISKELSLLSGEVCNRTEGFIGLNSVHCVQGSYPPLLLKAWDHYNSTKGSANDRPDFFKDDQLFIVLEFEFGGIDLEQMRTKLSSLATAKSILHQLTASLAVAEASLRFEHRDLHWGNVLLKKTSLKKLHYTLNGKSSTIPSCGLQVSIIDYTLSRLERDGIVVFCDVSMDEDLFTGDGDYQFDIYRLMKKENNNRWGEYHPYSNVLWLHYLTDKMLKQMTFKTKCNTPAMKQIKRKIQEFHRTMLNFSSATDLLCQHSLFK
Briefly: Haspin(h) Eurofins kinase panel. Conditions: Compound concentration 1.0 uM.

For the next test, the system named is OPM-2. Briefly: OPM-2 cell line Proliferation assay. Type of test: functional, Homo sapiens. Conditions: time 3 day.

Protein-tyrosine kinase 2-beta (Homo sapiens), sequence (Q14289 whole entry, looked up): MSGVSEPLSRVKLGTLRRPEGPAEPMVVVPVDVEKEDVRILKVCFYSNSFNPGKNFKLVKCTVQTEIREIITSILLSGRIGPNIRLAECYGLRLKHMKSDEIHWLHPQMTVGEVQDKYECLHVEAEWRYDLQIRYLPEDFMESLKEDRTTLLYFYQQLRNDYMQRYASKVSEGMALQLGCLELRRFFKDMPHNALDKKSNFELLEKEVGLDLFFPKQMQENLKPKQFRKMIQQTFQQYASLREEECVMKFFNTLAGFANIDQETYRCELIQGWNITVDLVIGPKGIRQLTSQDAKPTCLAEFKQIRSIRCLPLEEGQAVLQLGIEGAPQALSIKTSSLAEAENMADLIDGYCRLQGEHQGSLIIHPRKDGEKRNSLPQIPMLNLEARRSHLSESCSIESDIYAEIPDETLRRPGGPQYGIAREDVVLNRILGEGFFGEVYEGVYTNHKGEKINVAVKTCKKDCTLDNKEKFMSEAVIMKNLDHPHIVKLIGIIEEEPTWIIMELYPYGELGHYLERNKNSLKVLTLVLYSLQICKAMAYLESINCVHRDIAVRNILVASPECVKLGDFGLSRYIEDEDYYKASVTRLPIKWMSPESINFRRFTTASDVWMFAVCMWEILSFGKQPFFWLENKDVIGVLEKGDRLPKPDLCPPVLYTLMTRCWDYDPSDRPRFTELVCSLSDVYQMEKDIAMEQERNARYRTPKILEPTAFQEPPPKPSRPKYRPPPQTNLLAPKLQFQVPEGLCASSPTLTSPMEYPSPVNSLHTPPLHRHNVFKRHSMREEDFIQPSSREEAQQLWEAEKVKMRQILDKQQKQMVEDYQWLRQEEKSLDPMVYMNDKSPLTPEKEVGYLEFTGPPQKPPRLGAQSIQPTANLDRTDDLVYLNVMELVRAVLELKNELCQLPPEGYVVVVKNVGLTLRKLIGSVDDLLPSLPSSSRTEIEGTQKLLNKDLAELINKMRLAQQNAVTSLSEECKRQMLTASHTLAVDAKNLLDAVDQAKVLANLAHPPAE
Casein kinase I isoform gamma-2 (Homo sapiens), sequence (P78368 whole entry, looked up, canonical isoform): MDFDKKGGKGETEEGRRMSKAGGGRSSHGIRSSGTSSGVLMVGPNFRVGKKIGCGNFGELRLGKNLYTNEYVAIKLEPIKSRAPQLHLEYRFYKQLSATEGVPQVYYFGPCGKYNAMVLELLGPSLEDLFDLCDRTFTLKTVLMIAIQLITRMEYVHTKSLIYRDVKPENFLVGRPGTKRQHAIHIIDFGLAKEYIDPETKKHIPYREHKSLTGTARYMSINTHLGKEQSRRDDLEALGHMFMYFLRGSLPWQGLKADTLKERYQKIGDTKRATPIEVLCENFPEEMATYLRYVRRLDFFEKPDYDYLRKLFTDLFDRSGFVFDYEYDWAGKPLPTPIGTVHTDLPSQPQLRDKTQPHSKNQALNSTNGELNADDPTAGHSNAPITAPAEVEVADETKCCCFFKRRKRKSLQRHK
Ribosomal protein S6 kinase alpha-3, sequence (P51812 whole entry): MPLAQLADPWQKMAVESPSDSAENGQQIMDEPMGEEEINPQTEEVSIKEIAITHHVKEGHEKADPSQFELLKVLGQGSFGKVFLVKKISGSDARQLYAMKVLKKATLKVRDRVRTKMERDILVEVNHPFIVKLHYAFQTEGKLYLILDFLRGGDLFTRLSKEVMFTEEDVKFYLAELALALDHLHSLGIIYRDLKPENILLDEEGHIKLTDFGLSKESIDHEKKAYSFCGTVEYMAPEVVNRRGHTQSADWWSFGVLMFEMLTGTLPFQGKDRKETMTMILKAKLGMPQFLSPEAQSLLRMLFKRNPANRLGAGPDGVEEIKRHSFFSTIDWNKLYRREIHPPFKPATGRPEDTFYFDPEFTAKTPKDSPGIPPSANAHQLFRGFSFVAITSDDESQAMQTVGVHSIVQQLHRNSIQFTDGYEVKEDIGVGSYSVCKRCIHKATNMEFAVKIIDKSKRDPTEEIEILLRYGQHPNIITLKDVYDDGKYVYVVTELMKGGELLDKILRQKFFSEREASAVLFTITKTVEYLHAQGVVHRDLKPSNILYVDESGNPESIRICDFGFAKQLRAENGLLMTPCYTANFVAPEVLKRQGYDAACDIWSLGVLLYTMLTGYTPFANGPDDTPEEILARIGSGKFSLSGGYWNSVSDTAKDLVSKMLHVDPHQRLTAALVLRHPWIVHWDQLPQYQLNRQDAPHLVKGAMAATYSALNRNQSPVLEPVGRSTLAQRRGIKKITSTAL

On to `CCc1ccccc1C(=O)Nc1n[nH]c2c(C)c(F)c(C3C(C#N)=C(C)N(C)C(C)=C3C#N)cc12` [BAY-3827], for which the % residual kinase activity in test [1] was 0%; in [2], 76%; in [3], 121%; in test [4], 61%; in [5], 65%; in [6], 91%. Besides, the % residual kinase activity in test [7] was 103%; in [8], 94%; in test [9], 98%; in test [10], 98%; in [11] it was 107%. In addition, the “Cell Proliferation IC50” value in the test with SW780 was 10.3 µM; with SNU-16, 12 µM; with LNCaP C4-2B, above 10 µM; in the test on OPM-2, 1.5 µM.

Values taken from ChEMBL document CHEMBL4507319 (2021).
